Data as given in US9072778B2, “Treatment regimen for N-MYC, c-MYC, and L-MYC amplified and overexpressed tumors” (UNIVERSITY OF HAWAII, priority 2005, dated 2015).

Columns and labels:
AdoMetDC = target: T1, AdoMetDC (Homo sapiens, UniProt P17707); test: AdoMetDC enzyme activity in lysates of inhibitor-treated NB cells; assay type: cell-based; settings: for Specific enzyme activity ADOMETDC: DFMO = 5 mM, SAM486A = 10 μM, mean ± SD
T1 construct: processed AdoMetDC α chain (31 kDa) proteins were detected at the expected size in LAN-1 and NMB-7 cells; endogenous in cells; host or cells: LAN-1 and NMB-7 human neuroblastoma cells (LAN-1 only for the Western blot of treated cells)
T1 sequence (P17707 68-334 limits assumed): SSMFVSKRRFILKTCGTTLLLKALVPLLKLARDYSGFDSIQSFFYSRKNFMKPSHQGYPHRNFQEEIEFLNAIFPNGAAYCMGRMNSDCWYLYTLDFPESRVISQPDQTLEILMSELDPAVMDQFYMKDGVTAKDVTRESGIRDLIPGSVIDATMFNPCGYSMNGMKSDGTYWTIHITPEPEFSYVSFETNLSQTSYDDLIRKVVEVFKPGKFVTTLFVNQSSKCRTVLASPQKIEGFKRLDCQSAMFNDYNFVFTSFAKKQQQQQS
T1 sequence (P17707 1-67 limits assumed): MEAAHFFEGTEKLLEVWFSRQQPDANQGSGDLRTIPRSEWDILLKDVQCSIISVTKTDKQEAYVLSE
Procedure: Under identical experimental conditions, AdoMetDC activity was determined.
(§1) Human NB cell lines were provided by Dr. Robert Seeger (LAN-1; University of California, Los Angeles, Calif.), Dr. Nai-Kong Cheung (NMB-7; Memorial Sloan-Kettering Cancer Center, NY), and the American Type Culture Collection (SK-N-SH; ATCC, Manassas, Va.). Cells were maintained in RPMI 1640 (Biosource, Rockeville, Md.) containing 10% heat-inactivated fetal bovine serum (FBS) (Invitrogen, Carlsbad, Calif.), penicillin (100 IU/ml) and streptomycin (100 μg/ml). If cells were treated with exogenous Spd, 1 mM of aminoguanidine was included as an inhibitor of serum polyamine oxidation. […] For growth and proliferation inhibition, polyamine pool, and cell cycle studies, 10 μM Spd was added together with inhibitors, and cells were assayed on days 2 and/or 3.
ODC and AdoMetDC enzyme activities were determined using a standard assay known in the art. In brief, NB cells were washed twice with ice-cold PBS and harvested in 50 mM sodium phosphate buffer (pH 7.2), 0.1 mM EDTA, 2.5 mM DTT, supplemented with 1× protease inhibitor cocktail (Roche Molecular Biochemicals, Indianapolis, Ind.). For the measurement of AdoMetDC activity, cells were harvested in the above buffer supplemented with 2.5 mM Put. Cells were lysed by three freeze/thaw cycles and cell lysates were prepared by centrifugation for 20 minutes at 14,000 rpm and 4° C. ODC activity was measured in a reaction mixture that contained 20 μM L-[1-^14C]ornithine (47.70 mCi/mmol; NEN Life Science Products, Boston, Mass.). AdoMetDC activity was assayed in a reaction mixture that contained 8.2 μM S-adenosyl-L-[carboxy-^14C]methionine (58.0-61.0 mCi/mmol; Amersham Biosciences, Piscataway, N.J.) and 140.1 μM cold S-adenosylmethionine. […] Untreated or SAM486A-treated LAN-1 extracts were assayed for AdoMetDC activity after multiple rounds of sequential dilution with harvest buffer followed by concentration of the extract (Centricon YM-10, Millipore Corporation, Bedford, Mass.) to remove the inhibitor.

[1] = tested on: human ovarian cancer cells (SKOV-3); test: Growth, proliferation and morphology of ovarian cancer cells; assay type: cell-based; settings: DFMO or SAM486A
Excerpt: (Bachmann, A S, (2004) Hawaii Med. Journal, 63:371-373, which is incorporated herein by reference in its entirety). […] Micrographs were taken using an inverted phase contrast microscope (Nikon). In comparison with the ovarian cancer cells SKOV-3, the growth and proliferation of NB cells LAN-1 was inhibited much more drastically and caused significant morphological changes after only 3 days of treatment.
Similar effects were already apparent after 1-2 days (not shown). By comparison, the treatment of human melanoma cells (MALME-3) with polyamine inhibitors required more extensive incubation times (8-12 days) and led to less obvious rearrangements in cell structures (Kramer et al., (2001). Cancer Res, 61, 7754-62, which is incorporate herein by reference in its entirety).

NMB-7 cells = test: Cell cycle phase distribution (propidium iodide), NMB-7; assay type: cell-based, human; settings: DFMO = 5 mM, SAM486A = 10 μM, Spd = 10 μM, mean ± SD
Excerpt: This profile, which is typical for cell cycle arrest at G1, was enhanced by the combination of both inhibitors, with the majority of cells in G1 (˜71-73%), a reduced number of cells in S phase (˜20-28%), and a small portion in G2/M (˜2-7%).
as §1

MYCN = test: Western blot of MYCN in inhibitor-treated NB cells; assay type: cell-based, human; settings: LAN-1 and NMB-7; 5 mM DFMO, 10 μM SAM486A (FIG. 7c)
Excerpt: It has also been shown that MYCN can regulate p27^Kip1 in NB cells by targeting p27^Kip1 to the proteasome (Nakamura et al., (2003) Cell Death Differ, 10, 230-9, which is incorporated herein by reference in its entirety), and it is therefore possible that the observed increase in p27^Kip1 is in response to a decrease in MYCN. […] The regulation of ODC by MYCN has been previously proposed (Ben-Yosef et al., (1998) Oncogene, 17, 165-71; Lu et al., (2003) Cancer Lett, 197, 125-30; Lutz et al., (1996) Oncogene, 13, 803-12, each of which is incorporated herein by reference in its entirety), but has not been definitively confirmed. The precise mechanism by which polyamines regulate MYCN in NB cells remains to be further clarified.
To further investigate the mechanism that regulates G1 arrest in LAN-1 and NMB-7 cells, and to define the changes in associated protein responses, the cell cycle-related proteins p21^Waf1/Cip1, p27^Kip1, p53, Rb, and MYCN in NB cell lysates were studied. Cells were analyzed on days 1, 2, and 3. Equal amounts of total protein were loaded in all experiments. Proteins were scanned and the ratio of hypophosphorylated Rb (pRb) (lower band):hyperphosphorylated Rb (ppRb) (upper band) was calculated (b). MYCN bands were quantified and normalized relative to β-actin. Values are presented as percentage (%) of controls of day 1, 2 or 3. (c). […]

Specific enzyme activity ADOMETDC (AdoMetDC; LAN-1, 2 days after treatment) [% OF CONTROL]	Specific enzyme activity ADOMETDC (AdoMetDC; NMB-7, 2 days after treatment) [% OF CONTROL]	increase of measured AdoMetDC activity after sequential dilution and concentration of lysates to remove residual inhibitor (AdoMetDC; SAM486A-treated LAN-1 extracts, data not shown) [fold]	SMILES	cell morphology [1]	Cell cycle G1 (NMB-7 cells; NMB-7, day 2) [% TOTAL CELLS]	Cell cycle G2/M (NMB-7 cells; NMB-7, day 2) [% TOTAL CELLS]	Cell cycle S (NMB-7 cells; NMB-7, day 2) [% TOTAL CELLS]	Cell cycle G1 (NMB-7 cells; NMB-7, day 3) [% TOTAL CELLS]	Cell cycle G2/M (NMB-7 cells; NMB-7, day 3) [% TOTAL CELLS]	Cell cycle S (NMB-7 cells; NMB-7, day 3) [% TOTAL CELLS]	MYCN protein (MYCN)
689 ± 94	582 ± 67		NCCC[C@](N)(C(=O)O)C(F)F [DFMO, α-difluoromethylornithine]	no visible changes in cell morphology	60.3 ± 3.9	8.4 ± 2.9	31.3 ± 6.5	58.8 ± 2.6	10.2 ± 3.9	31.0 ± 6.3	strong downregulation
169 ± 9	200 ± 16	~100	N=C(N)c1cccc2c1CC/C2=N\N=C(N)N [SAM486A, 4-amidinoindan-1-one 2′-amidinohydrazone]	no visible changes in cell morphology	54.1 ± 4.3	9.3 ± 3.2	36.6 ± 6.0	56.4 ± 6.5	8.5 ± 1.4	35.2 ± 7.0	almost no effect
